From patent US20260242419A1, “A CYCLIC PEPTIDE FOR TRAPPING INTERLEUKIN-1 BETA” (Merck Sharp & Dohme LLC, priority 2023, published 2026)
Starred links: 1 amine or outer side, 2 acyl side, 3 side chain; linkers in the order of their positions; H or OH if unused. Non-standard residues stand in square brackets, D forms with d. Residues, ends and D or L forms follow the SMILES beside them. Phe(4-(5-CO2H-2-pyrimidyl)) = N[C@@H](Cc1ccc(-c2ncc(C(=O)O)cn2)cc1)C(=O)O; Phe(4-(4-Ac-piperazinyl)) = CC(=O)N1CCN(c2ccc(C[C@H](N)C(=O)O)cc2)CC1; Trp(4-Cl)(βS-Me) = C[C@@H](c1c[nH]c2cccc(Cl)c12)[C@H](N)C(=O)O; dPro(4R-(4-pyridylmethyl)) = O=C(O)[C@H]1C[C@@H](Cc2ccncc2)CN1; Trp(βS-Me,4-F) = C[C@@H](c1c[nH]c2cccc(F)c12)[C@H](N)C(=O)O; Bip(4'-COOH) = N[C@@H](Cc1ccc(-c2ccc(C(=O)O)cc2)cc1)C(=O)O; Phe(2-Cl,4-COOH) = N[C@@H](Cc1ccc(C(=O)O)cc1Cl)C(=O)O; 1Nal(3S-Me) = C[C@@H](c1cccc2ccccc12)[C@H](N)C(=O)O; X13 = O=C(O)c1ccc(C[C@H](N[*:1])C(=O)[*:2])cc1Cl; Ala(pyrimidin-5-yl) = N[C@@H](Cc1cncnc1)C(=O)O; Phe(4-COOH) = N[C@@H](Cc1ccc(C(=O)O)cc1)C(=O)O; Pro(cis-4-F) = O=C(O)[C@@H]1C[C@H](F)CN1; Ala(4-THP) = N[C@@H](CC1CCOCC1)C(=O)O; AEF = NCCOc1ccc(C[C@H](N)C(=O)O)cc1; d(αMeD) = C[C@@](N)(CC(=O)O)C(=O)O; 4Pal = N[C@@H](Cc1ccncc1)C(=O)O; aThr = C[C@H](O)[C@H](N)C(=O)O; d(αMeS) = C[C@@](N)(CO)C(=O)O; Dab = NCC[C@H](N)C(=O)O; Aib = CC(C)(N)C(=O)O

Each molecule was assayed against T1, IL-1β (Homo sapiens, UniProt P01584) (assay: IL-6 assay in MRC5 cells: inhibition of IL-1β induced IL-6 secretion (AlphaLISA)). Settings: inhibition of IL-1β induced IL-6 secretion in MRC5 cells; read-out: MRC5 IC50.
T1 construct: purchased BioLegend 579404
T1 sequence (P01584 117-269): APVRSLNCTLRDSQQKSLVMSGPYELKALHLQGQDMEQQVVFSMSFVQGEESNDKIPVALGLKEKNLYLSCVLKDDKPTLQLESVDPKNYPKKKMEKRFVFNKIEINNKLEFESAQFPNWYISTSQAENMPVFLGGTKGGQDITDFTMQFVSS
Format: cell-based
In short: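 Compound was pre-incubated 1 h at ambient temperature with recombinant human IL-1β at 2λ EC80 before adding human lung fibroblast MRC5 cells (3000/well) in EMEM with 0.025% BSA. After overnight culture at 37 °C, 5% CO2, secreted IL-6 in conditioned medium was measured by AlphaLISA; IC50 from 4-parameter logistic fits.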
Work on `C[C@H](O)[C@@H]1NC(=O)[C@@](C)(CC(=O)O)NC(=O)[C@H](Cc2c[nH]c3ccccc23)NC(=O)[C@H](CO)NC(=O)C(C)(C)NC(=O)[C@H]([C@@H](C)c2cccc3ccccc23)NC(=O)[C@@H]2C[C@H](F)CN2C(=O)CNC(=O)[C@H](Cc2ccc(C(=O)O)cc2Cl)NC(=O)[C@H](Cc2ccncc2)NC(=O)[C@H](Cc2ccc(-c3ccc(C(=O)O)cc3)cc2)NC(=O)[C@H]2C[C@@H](Cc3ccncc3)CN2C(=O)CNC(=O)[C@H](CCN)NC(=O)[C@H](CCC(N)=O)NC1=O` [Example 354] (cyclo([Bip(4'-COOH)][4Pal][Phe(2-Cl,4-COOH)]G[Pro(cis-4-F)][1Nal(3S-Me)][Aib]SW[d(αMeD)][aThr]Q[Dab]G[dPro(4R-(4-pyridylmethyl))])) yielded an IC50 of 0.014 nM.
`C[C@H](O)[C@@H]1NC(=O)[C@@](C)(CC(=O)O)NC(=O)[C@H](Cc2c[nH]c3ccccc23)NC(=O)[C@H](CO)NC(=O)C(C)(C)NC(=O)[C@H]([C@@H](C)c2c[nH]c3cccc(Cl)c23)NC(=O)[C@@H]2C[C@H](F)CN2C(=O)CNC(=O)[C@H](Cc2ccc(C(=O)O)cc2Cl)NC(=O)[C@H](Cc2ccncc2)NC(=O)[C@H](Cc2ccc(-c3ccc(C(=O)O)cc3)cc2)NC(=O)[C@H]2C[C@@H](Cc3ccncc3)CN2C(=O)CNC(=O)[C@H](CCN)NC(=O)[C@H](CCC(N)=O)NC1=O` [Example 355] (cyclo([Bip(4'-COOH)][4Pal][Phe(2-Cl,4-COOH)]G[Pro(cis-4-F)][Trp(4-Cl)(βS-Me)][Aib]SW[d(αMeD)][aThr]Q[Dab]G[dPro(4R-(4-pyridylmethyl))])) gave an IC50 of 0.013 nM.
`C[C@H](O)[C@@H]1NC(=O)[C@@](C)(CC(=O)O)NC(=O)[C@H](Cc2c[nH]c3ccccc23)NC(=O)[C@H](CO)NC(=O)C(C)(C)NC(=O)[C@H]([C@@H](C)c2c[nH]c3cccc(F)c23)NC(=O)[C@@H]2C[C@H](F)CN2C(=O)CNC(=O)[C@H](Cc2ccc(C(=O)O)cc2Cl)NC(=O)[C@H](Cc2ccncc2)NC(=O)[C@H](Cc2ccc(-c3ccc(C(=O)O)cc3)cc2)NC(=O)[C@H]2C[C@@H](Cc3ccncc3)CN2C(=O)CNC(=O)[C@H](CCN)NC(=O)[C@H](CCC(N)=O)NC1=O` [Example 356] (cyclo([Bip(4'-COOH)][4Pal][Phe(2-Cl,4-COOH)]G[Pro(cis-4-F)][Trp(βS-Me,4-F)][Aib]SW[d(αMeD)][aThr]Q[Dab]G[dPro(4R-(4-pyridylmethyl))])) gave an IC50 of 0.011 nM.
Work on `C[C@H](O)[C@@H]1NC(=O)[C@@](C)(CC(=O)O)NC(=O)[C@H](Cc2c[nH]c3ccccc23)NC(=O)[C@H](CO)NC(=O)C(C)(C)NC(=O)[C@H]([C@@H](C)c2cccc3ccccc23)NC(=O)[C@@H]2C[C@H](F)CN2C(=O)CNC(=O)[C@H](Cc2ccc(C(=O)O)cc2)NC(=O)[C@H](Cc2ccncc2)NC(=O)[C@H](Cc2ccc(-c3ccc(C(=O)O)cc3)cc2)NC(=O)[C@H]2C[C@@H](Cc3ccncc3)CN2C(=O)CNC(=O)[C@H](CCN)NC(=O)[C@H](CCC(N)=O)NC1=O` [Example 357] (cyclo([Bip(4'-COOH)][4Pal][Phe(4-COOH)]G[Pro(cis-4-F)][1Nal(3S-Me)][Aib]SW[d(αMeD)][aThr]Q[Dab]G[dPro(4R-(4-pyridylmethyl))])) yielded an IC50 of 0.017 nM.
`C[C@H](O)[C@@H]1NC(=O)[C@@](C)(CC(=O)O)NC(=O)[C@H](Cc2c[nH]c3ccccc23)NC(=O)[C@H](CO)NC(=O)C(C)(C)NC(=O)[C@H]([C@@H](C)c2c[nH]c3cccc(Cl)c23)NC(=O)[C@@H]2C[C@H](F)CN2C(=O)CNC(=O)[C@H](Cc2ccc(C(=O)O)cc2)NC(=O)[C@H](Cc2ccncc2)NC(=O)[C@H](Cc2ccc(-c3ccc(C(=O)O)cc3)cc2)NC(=O)[C@H]2C[C@@H](Cc3ccncc3)CN2C(=O)CNC(=O)[C@H](CCN)NC(=O)[C@H](CCC(N)=O)NC1=O` [Example 358] (cyclo([Bip(4'-COOH)][4Pal][Phe(4-COOH)]G[Pro(cis-4-F)][Trp(4-Cl)(βS-Me)][Aib]SW[d(αMeD)][aThr]Q[Dab]G[dPro(4R-(4-pyridylmethyl))])) showed an IC50 of 0.013 nM.
With `C[C@H](O)[C@@H]1NC(=O)[C@@](C)(CC(=O)O)NC(=O)[C@H](Cc2c[nH]c3ccccc23)NC(=O)[C@H](CO)NC(=O)C(C)(C)NC(=O)[C@H]([C@@H](C)c2c[nH]c3cccc(F)c23)NC(=O)[C@@H]2C[C@H](F)CN2C(=O)CNC(=O)[C@H](Cc2ccc(C(=O)O)cc2)NC(=O)[C@H](Cc2ccncc2)NC(=O)[C@H](Cc2ccc(-c3ccc(C(=O)O)cc3)cc2)NC(=O)[C@H]2C[C@@H](Cc3ccncc3)CN2C(=O)CNC(=O)[C@H](CCN)NC(=O)[C@H](CCC(N)=O)NC1=O` [Example 359] (cyclo([Bip(4'-COOH)][4Pal][Phe(4-COOH)]G[Pro(cis-4-F)][Trp(βS-Me,4-F)][Aib]SW[d(αMeD)][aThr]Q[Dab]G[dPro(4R-(4-pyridylmethyl))])) the IC50 was 0.011 nM.
`C[C@@H](c1cccc2ccccc12)[C@@H]1NC(=O)[C@@H]2C[C@H](F)CN2C(=O)CNC(=O)[C@H](Cc2ccc(C(=O)O)cc2Cl)NC(=O)[C@H](Cc2ccncc2)NC(=O)[C@H](Cc2ccc(-c3ncc(C(=O)O)cn3)cc2)NC(=O)[C@H]2C[C@@H](Cc3ccncc3)CN2C(=O)CNC(=O)[C@H](CCN)NC(=O)[C@H](CCC(N)=O)NC(=O)[C@H](CC2CCOCC2)NC(=O)[C@@](C)(CC(=O)O)NC(=O)[C@H](Cc2c[nH]c3ccccc23)NC(=O)[C@H](CO)NC(=O)C(C)(C)NC1=O` [Example 360] (cyclo([Phe(4-(5-CO2H-2-pyrimidyl))][4Pal][Phe(2-Cl,4-COOH)]G[Pro(cis-4-F)][1Nal(3S-Me)][Aib]SW[d(αMeD)][Ala(4-THP)]Q[Dab]G[dPro(4R-(4-pyridylmethyl))])) gave an IC50 of 0.019 nM.
With `C[C@@H](c1c[nH]c2cccc(F)c12)[C@@H]1NC(=O)[C@@H]2C[C@H](F)CN2C(=O)CNC(=O)[C@H](Cc2ccc(C(=O)O)c(Cl)c2)NC(=O)[C@H](Cc2ccncc2)NC(=O)[C@H](Cc2ccc(-c3ncc(C(=O)O)cn3)cc2)NC(=O)[C@H]2C[C@@H](Cc3ccncc3)CN2C(=O)CNC(=O)[C@H](CCN)NC(=O)[C@H](CCC(N)=O)NC(=O)[C@H](CC2CCOCC2)NC(=O)[C@@](C)(CC(=O)O)NC(=O)[C@H](Cc2c[nH]c3ccccc23)NC(=O)[C@H](CO)NC(=O)C(C)(C)NC1=O` [Example 361] (cyclo([Phe(4-(5-CO2H-2-pyrimidyl))][4Pal][X13]G[Pro(cis-4-F)][Trp(βS-Me,4-F)][Aib]SW[d(αMeD)][Ala(4-THP)]Q[Dab]G[dPro(4R-(4-pyridylmethyl))])) the IC50 was 0.022 nM.
For `CC(=O)NCCOc1ccc(C[C@@H]2NC(=O)[C@H]3C[C@@H](Cc4ccncc4)CN3C(=O)CNC(=O)[C@H](CCN)NC(=O)[C@H](CCC(N)=O)NC(=O)[C@H](CC3CCOCC3)NC(=O)[C@@](C)(CC(=O)O)NC(=O)[C@H](Cc3c[nH]c4ccccc34)NC(=O)[C@H](CO)NC(=O)C(C)(C)NC(=O)[C@H]([C@@H](C)c3c[nH]c4cccc(Cl)c34)NC(=O)[C@@H]3C[C@H](F)CN3C(=O)CNC(=O)[C@H](Cc3ccc(C(=O)O)cc3)NC(=O)[C@H](Cc3ccncc3)NC2=O)cc1` [Example 362] (cyclo([AEF](Ac)[4Pal][Phe(4-COOH)]G[Pro(cis-4-F)][Trp(4-Cl)(βS-Me)][Aib]SW[d(αMeD)][Ala(4-THP)]Q[Dab]G[dPro(4R-(4-pyridylmethyl))])), the IC50 was 0.023 nM.
Work on `CC(=O)NCCOc1ccc(C[C@@H]2NC(=O)[C@H]3C[C@@H](Cc4ccncc4)CN3C(=O)CNC(=O)[C@H](CCN)NC(=O)[C@H](CCC(N)=O)NC(=O)[C@H](CC3CCOCC3)NC(=O)[C@@](C)(CC(=O)O)NC(=O)[C@H](Cc3c[nH]c4ccccc34)NC(=O)[C@H](CO)NC(=O)C(C)(C)NC(=O)[C@H]([C@@H](C)c3cccc4ccccc34)NC(=O)[C@@H]3C[C@H](F)CN3C(=O)CNC(=O)[C@H](Cc3ccc(C(=O)O)cc3Cl)NC(=O)[C@H](Cc3ccncc3)NC2=O)cc1` [Example 363] (cyclo([AEF](Ac)[4Pal][Phe(2-Cl,4-COOH)]G[Pro(cis-4-F)][1Nal(3S-Me)][Aib]SW[d(αMeD)][Ala(4-THP)]Q[Dab]G[dPro(4R-(4-pyridylmethyl))])) yielded an IC50 of 0.021 nM.
With `C[C@@H](c1c[nH]c2cccc(F)c12)[C@@H]1NC(=O)[C@@H]2C[C@H](F)CN2C(=O)CNC(=O)[C@H](Cc2ccc(C(=O)O)cc2)NC(=O)[C@H](Cc2ccncc2)NC(=O)[C@H](Cc2ccc(-c3ccc(C(=O)O)cc3)cc2)NC(=O)[C@H]2C[C@@H](Cc3ccncc3)CN2C(=O)CNC(=O)[C@H](CCN)NC(=O)[C@H](CCC(N)=O)NC(=O)[C@H](CC2CCOCC2)NC(=O)[C@@](C)(CO)NC(=O)[C@H](Cc2c[nH]c3ccccc23)NC(=O)[C@H](CO)NC(=O)C(C)(C)NC1=O` [Example 364] (cyclo([Bip(4'-COOH)][4Pal][Phe(4-COOH)]G[Pro(cis-4-F)][Trp(βS-Me,4-F)][Aib]SW[d(αMeS)][Ala(4-THP)]Q[Dab]G[dPro(4R-(4-pyridylmethyl))])) the IC50 was 0.015 nM.
`CC(=O)N1CCN(c2ccc(C[C@@H]3NC(=O)[C@H]4C[C@@H](Cc5ccncc5)CN4C(=O)CNC(=O)[C@H](CCN)NC(=O)[C@H](CCC(N)=O)NC(=O)[C@H](Cc4cncnc4)NC(=O)C(C)(C)NC(=O)[C@H](Cc4c[nH]c5ccccc45)NC(=O)[C@H](CO)NC(=O)C(C)(C)NC(=O)[C@H]([C@@H](C)c4c[nH]c5cccc(F)c45)NC(=O)[C@@H]4C[C@H](F)CN4C(=O)CNC(=O)[C@H](Cc4ccc(C(=O)O)cc4Cl)NC(=O)[C@H](Cc4ccncc4)NC3=O)cc2)CC1` [Example 365] (cyclo([Phe(4-(4-Ac-piperazinyl))][4Pal][Phe(2-Cl,4-COOH)]G[Pro(cis-4-F)][Trp(βS-Me,4-F)][Aib]SW[Aib][Ala(pyrimidin-5-yl)]Q[Dab]G[dPro(4R-(4-pyridylmethyl))])) was tested, and the IC50 was 0.023 nM.
`CC(=O)N1CCN(c2ccc(C[C@@H]3NC(=O)[C@H]4C[C@@H](Cc5ccncc5)CN4C(=O)CNC(=O)[C@H](CCN)NC(=O)[C@H](CCC(N)=O)NC(=O)[C@H](Cc4cncnc4)NC(=O)C(C)(C)NC(=O)[C@H](Cc4c[nH]c5ccccc45)NC(=O)[C@H](CO)NC(=O)C(C)(C)NC(=O)[C@H]([C@@H](C)c4c[nH]c5cccc(F)c45)NC(=O)[C@@H]4C[C@H](F)CN4C(=O)CNC(=O)[C@H](Cc4ccc(C(=O)O)cc4)NC(=O)[C@H](Cc4ccncc4)NC3=O)cc2)CC1` [Example 366] (cyclo([Phe(4-(4-Ac-piperazinyl))][4Pal][Phe(4-COOH)]G[Pro(cis-4-F)][Trp(βS-Me,4-F)][Aib]SW[Aib][Ala(pyrimidin-5-yl)]Q[Dab]G[dPro(4R-(4-pyridylmethyl))])) showed an IC50 of 0.021 nM.
